The results in this text go back to patent US20220089578A1, “COMPOUNDS AS GLP-1R AGONISTS” (Terns Pharmaceuticals, Inc., priority 2020, published 2022).

Chain of human GLP-1R (P43220 24-463): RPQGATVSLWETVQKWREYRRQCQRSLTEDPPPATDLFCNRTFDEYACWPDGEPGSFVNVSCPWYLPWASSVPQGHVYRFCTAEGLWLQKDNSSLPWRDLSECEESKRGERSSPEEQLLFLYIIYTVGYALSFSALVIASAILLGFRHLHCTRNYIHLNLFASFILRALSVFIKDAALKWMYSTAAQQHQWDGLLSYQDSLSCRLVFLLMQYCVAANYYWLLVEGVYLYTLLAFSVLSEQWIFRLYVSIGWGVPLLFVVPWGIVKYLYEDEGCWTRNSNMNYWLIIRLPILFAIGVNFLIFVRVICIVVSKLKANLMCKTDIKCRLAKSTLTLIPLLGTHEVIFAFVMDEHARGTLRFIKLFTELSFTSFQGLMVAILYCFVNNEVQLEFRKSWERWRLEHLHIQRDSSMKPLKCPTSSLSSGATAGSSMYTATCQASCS

One test deals with human GLP-1R (Homo sapiens, UniProt P43220). The test is described as follows: GLP-1R Cell Assay 1: cAMP Hunter CHO-K1 GLP1R Gs cell line, HitHunter cAMP assay. Format: cell-based. To be noted: Table 2; cAMP Hunter CHO-K1 GLP1R Gs cells; percent activity normalized to Exendin-4. Here is the method:
GLP-1R mediated agonist activity was determined using the cAMP Hunter CHO-K1 GLP1R Gs cell line (DiscoverX, cat# 95-0062C2), a stable CHO-K1 derived cell lines overexpressing naturally Gs coupled wild-type human GLP-1R (accession number: NM_002062.3). GLP-1R agonism in this cell line was detected by measuring cellular cAMP levels using the HitHunter cAMP assay kit (cat# 90-0075SM2), a homogenous, gain-of-signal competitive immune assay based on Enzyme Fragment Complementation (EFC) technology. In this system cellular cAMP competes with exogenous labeled cAMP (ED-cAMP) for binding to an anti-cAMP antibody. […] The luminescent signal is directly proportional to the amount of cellular cAMP.
For compound testing, cells were seeded in a total volume of 20 μL in white walled, 384-well microplates and incubated at 37° C. prior to compound testing. Prior to compound addition, cell culture media was removed by aspiration and replaced with 15 pt reagent buffer (2:1 HBSS/10 mM HEPES: cAMP XS+Ab reagent). Compounds were dissolved in DSMO and serially diluted (3-fold) prior to final dilution to 4X in assay buffer. Samples (5 μL) were added to cells and incubated at 37° C. for […] prior to 1 hour incubation with 20 pt cAMP XS+ED/CL lysis reagent and 3 hour incubation with 20 μL cAMP XS+EA reagent at room temperature. Microplates were read on a PerkinElmer Envision instrument. Compound activity was analyzed using CBIS data analysis suite (ChemInnovation). Percent activity was calculated based on duplicate assay runs and normalized to the positive control Exendin-4, a GLP-1R peptide agonist, using the following formula: […]
The effective compound concentration resulting in 50% response (EC50) was determined by non-linear regression analysis of dose-response curves.
As a reminder, the EC50 is the concentration giving half of the maximal effect. With `N#Cc1ccc(Cn2cnc3ccc(N4CCN(Cc5nc6ccc(C(=O)O)cc6n5C[C@@H]5CCO5)CC4)nc32)c(F)c1` [Compound 100, (S)-2-((4-(3-(4-cyano-2-fluorobenzyl)-3H-imidazo[4,5-b]pyridin-5-yl)piperazin-1-yl)methyl)-1-(oxetan-2-ylmethyl)-1H-benzo[d]imidazole-6-carboxylic acid], the response was half-maximal at 246 nM (EC50).
For `N#Cc1ccc2nc(COc3cccc(N4CCN(Cc5nc6ccc(C(=O)O)cc6n5C[C@@H]5CCO5)CC4)n3)sc2c1` [Compound 110, (S)-2-((4-(6-((6-cyanobenzo[d]thiazol-2-yl)methoxy)pyridin-2-yl)piperazin-1-yl)methyl)-1-(oxetan-2-ylmethyl)-1H-benzo[d]imidazole-6-carboxylic acid], the EC50 was 0.213 nM.
`O=C(O)c1ccc2nc(CN3CCN(c4cccc(OCc5ccccc5)n4)C(=O)C3)n(C[C@@H]3CCO3)c2c1` [Compound 19, (S)-2-((4-(6-(benzyloxy)pyridin-2-yl)-3-oxopiperazin-1-yl)methyl)-1-(oxetan-2-ylmethyl)-1H-benzo[d]imidazole-6-carboxylic acid]: the midpoint of the response, the EC50, lay at 41.2 nM.
As to `O=C(O)c1ccc2nc(CN3CCN(c4cccc(OCc5nc6ccc(F)cc6s5)n4)CC3)n(C[C@@H]3CCO3)c2c1` [Compound 128, (S)-2-((4-(6-((6-fluorobenzo[d]thiazol-2-yl)methoxy)pyridin-2-yl)piperazin-1-yl)methyl)-1-(oxetan-2-ylmethyl)-1H-benzo[d]imidazole-6-carboxylic acid], the EC50 was 0.246 nM.
As to `O=C(O)c1ccc2nc(CN3CC[C@]4(c5cccc(OCc6ccc(Cl)cc6F)n5)C[C@@H]4C3)n(C[C@@H]3CCO3)c2c1` [Compound 98, 2-(((1S,6R)-6-(6-((4-chloro-2-fluorobenzyl)oxy)pyridin-2-yl)-3-azabicyclo[4.1.0]heptan-3-yl)methyl)-1-(((S)-oxetan-2-yl)methyl)-1H-benzo[d]imidazole-6-carboxylic acid], the EC50 was 0.556 nM. Against the preceding molecule, the EC50 is about 2.3-fold higher.
`N#Cc1cnc(COc2cccc(N3CCN(Cc4nc5ccc(C(=O)O)cc5n4C[C@@H]4CCO4)CC3)n2)nc1` [Compound 16, (S)-2-((4-(6-((5-cyanopyrimidin-2-yl)methoxy)pyridin-2-yl)piperazin-1-yl)methyl)-1-(oxetan-2-ylmethyl)-1H-benzo[d]imidazole-6-carboxylic acid] returned an EC50 of 9.24 nM.
Consider `CS(=O)(=O)N1CCC(COc2cccc(N3CCN(Cc4nc5ccc(C(=O)O)cc5n4C[C@@H]4CCO4)CC3)n2)CC1` [Compound 52, (S)-2-((4-(6-((1-(methylsulfonyl)piperidin-4-yl)methoxy)pyridin-2-yl)piperazin-1-yl)methyl)-1-(oxetan-2-ylmethyl)-1H-benzo[d]imidazole-6-carboxylic acid], for which the EC50 was above 500 nM.
The molecule `N#Cc1ccc(COc2cccc(C3CCN([C@H]4CCCn5c4nc4ccc(C(=O)O)cc45)CC3)n2)c(F)c1` [Compound 89, (S)-4-(4-(6-((4-cyano-2-fluorobenzyl)oxy)pyridin-2-yl)piperidin-1-yl)-1,2,3,4-tetrahydrobenzo[4,5]imidazo[1,2-a]pyridine-8-carboxylic acid] came in with an EC50 of 76.2 nM.
`N#Cc1cc(F)c2c(c1)CCC(c1cccc(N3CCN(Cc4nc5ccc(C(=O)O)cc5n4C[C@@H]4CCO4)CC3)n1)C2` (stereo partly drawn) [Compound 4, 2-((4-(6-(6-cyano-8-fluoro-1,2,3,4-tetrahydronaphthalen-2-yl)pyridin-2-yl)piperazin-1-yl)methyl)-1-((S)-oxetan-2-ylmethyl)-1H-benzo[d]imidazole-6-carboxylic acid]: the response was half-maximal at 4.58 nM (EC50). Compared with the last molecule, the EC50 is about 17-fold lower.
The molecule `O=C(O)c1ccc2nc(CN3CCN(c4cccc(OC5CCC6(CCC6)CC5)n4)CC3)n(C[C@@H]3CCO3)c2c1` [Compound 49, (S)-1-(oxetan-2-ylmethyl)-2-((4-(6-(spiro[3.5]nonan-7-yloxy)pyridin-2-yl)piperazin-1-yl)methyl)-1H-benzo[d]imidazole-6-carboxylic acid] registered an EC50 above 500 nM.
Take `O=C(O)c1ccc2nc(CN3CCN(c4cccc(OCc5ccncc5)n4)CC3)n(C[C@@H]3CCO3)c2c1` [Compound 42, (S)-1-(oxetan-2-ylmethyl)-2-((4-(6-(pyridin-4-ylmethoxy)pyridin-2-yl)piperazin-1-yl)methyl)-1H-benzo[d]imidazole-6-carboxylic acid]: it took 3.84 nM to reach a half-maximal effect (EC50). In other words, the single-digit nanomolar range.
Molecule `N#Cc1ccc(COc2nn(C3CCN(Cc4nc5ccc(C(=O)O)cc5n4C[C@@H]4CCO4)CC3)cc2CO)c(F)c1` [Compound 136, (S)-2-((4-(3-((4-cyano-2-fluorobenzyl)oxy)-4-(hydroxymethyl)-1H-pyrazol-1-yl)piperidin-1-yl)methyl)-1-(oxetan-2-ylmethyl)-1H-benzo[d]imidazole-6-carboxylic acid] registered an EC50 of 109 nM.
`O=C(O)c1ccc2nc(CN3CCN(c4cccc(OCC5CCC(F)(F)CC5)n4)CC3)n(C[C@@H]3CCO3)c2c1` [Compound 36, (S)-2-((4-(6-((4,4-difluorocyclohexyl)methoxy)pyridin-2-yl)piperazin-1-yl)methyl)-1-(oxetan-2-ylmethyl)-1H-benzo[d]imidazole-6-carboxylic acid] returned a half-maximal effective concentration (EC50) of 36.4 nM.
`N#Cc1cccc2c1CN(c1cccc(N3CCN(Cc4nc5ccc(C(=O)O)cc5n4C[C@@H]4CCO4)CC3)n1)CCC2` [Compound 80, (S)-2-((4-(6-(9-cyano-1,3,4,5-tetrahydro-2H-benzo[c]azepin-2-yl)pyridin-2-yl)piperazin-1-yl)methyl)-1-(oxetan-2-ylmethyl)-1H-benzo[d]imidazole-6-carboxylic acid] registered a concentration giving a half-maximal response (EC50) of 37.9 nM. This EC50 and that of the molecule before are within 1.5-fold of each other.
For the molecule `N#Cc1cccc2c1CN(c1cccc(N3CCN(Cc4nc5ccc(C(=O)O)cc5n4C[C@@H]4CCO4)CC3)n1)CC2` [Compound 109, (S)-2-((4-(6-(8-cyano-3,4-dihydroisoquinolin-2(1H)-yl)pyridin-2-yl)piperazin-1-yl)methyl)-1-(oxetan-2-ylmethyl)-1H-benzo[d]imidazole-6-carboxylic acid], the EC50 was 3.65 nM. Against the preceding molecule, the EC50 is about 10-fold lower.
The same measure, in the same setting: then `N#Cc1ccc(COc2cccc(C3CCN([C@H]4CCCCn5c4nc4ccc(C(=O)O)cc45)CC3)n2)c(F)c1` [Compound 91, (S)-6-(4-(6-((4-cyano-2-fluorobenzyl)oxy)pyridin-2-yl)piperidin-1-yl)-7,8,9,10-tetrahydro-6H-benzo[4,5]imidazo[1,2-a]azepine-2-carboxylic acid], with 17.3 nM; and `O=C(O)c1ccc2nc(CN3CCN(c4cccc(OCc5nc6c(F)cccc6s5)n4)CC3)n(C[C@@H]3CCO3)c2c1` [Compound 107, (S)-2-((4-(6-((4-fluorobenzo[d]thiazol-2-yl)methoxy)pyridin-2-yl)piperazin-1-yl)methyl)-1-(oxetan-2-ylmethyl)-1H-benzo[d]imidazole-6-carboxylic acid], with 1.07 nM; and `O=C(O)c1ccc2nc(CN3CCN(c4cccc(OCc5nc6cnccc6s5)n4)CC3)n(C[C@@H]3CCO3)c2c1` [Compound 130, (S)-1-(oxetan-2-ylmethyl)-2-((4-(6-(thiazolo[4,5-c]pyridin-2-ylmethoxy)pyridin-2-yl)piperazin-1-yl)methyl)-1H-benzo[d]imidazole-6-carboxylic acid], with 0.966 nM.
`N#Cc1ccc(Cn2ccc3ccc(N4CCN(Cc5nc6ccc(C(=O)O)cc6n5C[C@@H]5CCO5)CC4)nc32)c(F)c1` [Compound 29, (S)-2-((4-(1-(4-cyano-2-fluorobenzyl)-1H-pyrrolo[2,3-b]pyridin-6-yl)piperazin-1-yl)methyl)-1-(oxetan-2-ylmethyl)-1H-benzo[d]imidazole-6-carboxylic acid] came in with an EC50 of 16.1 nM. This EC50 lies about 17-fold higher than the previous one.
In the case of `O=C(O)c1ccc2nc(CN3CCN(c4cccc(OCc5nc6ccccc6s5)n4)CC3)n(C[C@@H]3CCO3)c2c1` [Compound 69, (S)-2-((4-(6-(benzo[d]thiazol-2-ylmethoxy)pyridin-2-yl)piperazin-1-yl)methyl)-1-(oxetan-2-ylmethyl)-1H-benzo[d]imidazole-6-carboxylic acid], the EC50 was 0.394 nM.

The same test, now with this note: Table 3; cAMP Hunter CHO-K1 GLP1R Gs cells; percent activity normalized to Exendin-4.
`N#Cc1ccc2c(c1)CCC[C@@H]2Oc1cccc(C2CCN(Cc3nc4ccc(C(=O)O)cc4n3C[C@@H]3CCO3)CC2)n1` (single isomer, unassigned) [Compound 146-P2] returned an EC50 of 7.02 nM. That is a single-digit nanomolar value.
Turning to `CCn1ccnc1Cn1c(CN2CC[C@]3(c4cccc(N5CCc6cc(C#N)cc(F)c6C5)n4)C[C@@H]3C2)nc2ccc(C(=O)O)cc21` [Compound 163-P2, 2-(((1S,6R)-6-(6-(6-cyano-8-fluoro-3,4-dihydroisoquinolin-2(1H)-yl)pyridin-2-yl)-3-azabicyclo[4.1.0]heptan-3-yl)methyl)-1-((1-ethyl-1H-imidazol-2-yl)methyl)-1H-benzo[d]imidazole-6-carboxylic acid], the concentration giving a half-maximal response (EC50) stood at 0.414 nM.
The same measure, in the same setting: then `O=C(O)c1ccc2nc(CN3CCN(c4ccc5c(n4)N(Cc4ccccc4)CCO5)CC3)n(C[C@@H]3CCO3)c2c1` [Compound 149, (S)-2-((4-(4-benzyl-3,4-dihydro-2H-pyrido[3,2-b][1,4]oxazin-6-yl)piperazin-1-yl)methyl)-1-(oxetan-2-ylmethyl)-1H-benzo[d]imidazole-6-carboxylic acid/], with above 500 nM.
